Test results as given in paper PMC9656702, “Unveiling a New Selenocyanate as a Multitarget Candidate with Anticancer, Antileishmanial and Antibacterial Potential” (Molecules, 2022).
In brackets after ≈: the same amount, converted by molar mass. Like-named read-outs stand apart in the source and are kept apart here.

Assays:
184B5 = assay: MTT assay in nonmalignant mammary gland cells 184B5; assay type: cell-based; conditions: for IC50: read-out: IC50 184B5
Protocol: To assess their possible selectivity, the synthesized selenocompounds were then tested in a mammary gland (184B5) nonmalignant cell line, and the selectivity indexes (SI) were determined as the ratio of the IC50 values obtained for the nonmalignant cells and the homolog cancer cells.
(§1) The cell lines were obtained from the American Type Culture Collection (ATCC). All the cancer cell lines (HT-29, HCT-116, H1299, HTB-54, MDA-MB-231 and MCF-7) and the nontumorigenic cells (184B5) were maintained in RPMI 1640 medium (Gibco), supplemented with 10% fetal bovine serum (FBS; Gibco) and 1% antibiotics (10.00 units/mL penicillin and 10.00 mg/mL streptomycin; Gibco). Cells were preserved in tissue culture flasks at 37 °C and 5% CO2. Culture medium was replaced every three days.
(§2) The cytotoxic effect of each compound was initially tested at seven different concentrations ranging between 0.5 and 100 µM in the cell lines mentioned above. The cells were seeded (1 × 10^4 cells per well) in 96-well plates and incubated at 37 °C and 5% CO2 for 24 h. After attachment, cells were treated with either dimethyl sulfoxide (DMSO) or increasing concentrations of the corresponding selenocompound for 48 h. The effect of the compounds on cell viability was determined by the MTT assay. In brief, 20 µL of MTT (5 mg/mL) was added to each well 2.5 h prior to experiment termination. At the end of the incubation, the medium was removed, and the formazan crystals were dissolved in 50 µL of DMSO. Absorbance was measured at 550 nm on a microplate reader. IC50 values were calculated using OriginPro 8.5.1. software by nonlinear curve fitting. Selectivity indexes were calculated as the ratio of the IC50 values determined for the nonmalignant and the tumoral cells in the breast cell lines (IC50 (184B5)/IC50 (MDA-MB-231) and IC50 (184B5)/IC50 (MCF-7)). Data were obtained from at least three independent experiments performed in triplicates.

MDA-MB-231 = assay: Antiproliferative MTT assay, MDA-MB-231 breast cancer cells; assay type: cell-based, human
Protocol: (§3) The antiproliferative activities of the cinnamyl and benzodioxyl derivatives were assessed against six human cell lines of three different types of cancer (colon, lung, and breast) using the 3-(4,5-dimethylthiazol-2-yl)-2,5-diphenyltetrazolium bromide (MTT) assay at seven concentrations for 48 h. The results are expressed as the IC50 values and are outlined in Table 1.
as §1, §2

S. aureus = assay: MIC and MBC assay, S. aureus; assay type: cell-based, Staphylococcus aureus; conditions: Gram-positive; for MBC / MIC: Staphylococcus aureus; for MIC / MIC S. aureus: 24 h at 37 °C
Protocol: (§4) The minimum inhibitory concentration (MIC) and the minimum bactericidal concentration (MBC) values of the selenocompounds were determined in a panel of six bacterial strains as a first approach to assess their antibacterial activity. Thus, the synthesized derivatives were tested against the Gram-negative bacteria Escherichia coli (E. coli), Klebsiella pneumoniae (K. pneumoniae) and Citrobacter freundii (C. freundii); and the Gram-positive bacteria Staphylococcus aureus (S. aureus), Streptococcus faecalis (S. faecalis), and Staphylococcus epidermidis (S. epidermidis). […]
(§5) All the selenocompounds were screened for their in vitro inhibitory activity against three Gram-negative (E. coli, K. pneumoniae and C. freundii) and three Gram-positive (S. aureus, S. faecalis and S. epidermidis) bacteria. Bacterial strains were kindly provided by the Department of Microbiology and Parasitology of the University of Navarra. The bacterial cells were grown in tryptic soy agar (TSA) plates and maintained at 4 °C.
(§6) The compounds were firstly dissolved in DMSO and serially diluted in a 96-well plate in tryptic soy broth (TSB) with eleven concentrations ranging from 400 µg/mL to 0.4 µg/mL with a final volume of 100 µL. Subsequently, 100 µL of a diluted suspension of bacterial cells with an optical density of 0.125 measured at 600 nm in TSB (inoculum of approximately 10^5 CFU/mL) was added to each well and incubated at 37 °C for 24 h. After the incubation period, each well was analyzed for the presence or absence of visual growth of bacterial cells. The lowest concentration of the test compound at which no visible growth occurred was determined as the MIC values. After incubation, 10 µL of the bacterial suspension from each well that presented antibacterial activity was added to divided TSA plates and incubated at 37 °C overnight.

[1] = system: Leishmania major promastigotes; assay: Parasite viability MTT assay, L. major promastigotes; assay type: cell-based; conditions: 48 h
Protocol: The cytotoxic activities of all the derivatives against Leishmania major and Leishmania infantum promastigotes were studied by the MTT assay after exposing the parasites to five different concentrations of each compound for 48 h. Miltefosine and paromomycin, two currently available drugs for the treatment of leishmaniasis, were used as positive controls.
L. major (clone VI, MHOM/IL/80/Friendlin) and L. infantum (BCN-150) promastigotes were grown in continuous stirred M199 1X medium (Sigma, St Louis, MO, USA) at 26 °C supplemented with 25 mM HEPES (pH 7.2), 10% heat-inactivated FBS (Gibco, Gaithersburg, MD, USA), 0.1 mM adenine, 0.0005% (w/v) hemin, 0.0001% (w/v) biotin, 100 UI/mL penicillin and […] streptomycin (Gibco, Gaithersburg, MD, USA). Media were changed before each experiment to achieve exponential growth.
The antileishmanial activity was assessed by the MTT assay as previously described. Briefly, 3 × 10^6 promastigotes of both Leishmania strains were placed into a 96-well plate with supplemented M199 1X medium during their logarithmic growth phase. The parasites were treated with five increasing concentrations of the compounds ranging between 0.1 and 1000 µM at 26 °C for 48 h. At the termination point, 20 µL of MTT (5 mg/mL) was added and further incubated for 4 h. The resultant formazan crystals formed were dissolved in 80 µL of DMSO and the absorbance was measured at 550 nm on a microplate reader. IC50 values were calculated using OriginPro 8.5.1. software by nonlinear curve fitting. Miltefosine and paromomycin were used as reference drugs. Data were obtained from at least three independent experiments performed in triplicates.

HCT-116 = assay: Antiproliferative MTT assay, HCT-116 colon cancer cells; assay type: cell-based, human
Protocol: as §3, §1, §2

E. coli = assay: MIC and MBC assay, E. coli; assay type: cell-based, Escherichia coli; conditions: Gram-negative; for MBC / MIC: Escherichia coli; for MIC / MIC E. coli: 24 h at 37 °C
Protocol: as §4, §5, §6

[2] = Homo sapiens, 184B5, 48 h, nontumorigenic cells, MTT assay, 48 h, mean ± SD
[3] = nontumorigenic cells, MTT assay, 48 h, mean ± SD
[4] = Homo sapiens, MDA-MB-231, MTT assay, 48 h, mean ± SD, read-out: IC50 MDA-MB-231
[5] = Leishmania major, promastigotes, MTT assay, mean ± SD, read-out: IC50 Leishmania major
[6] = Homo sapiens, HCT-116, 48 h, MTT assay, 48 h, mean ± SD, read-out: IC50 HCT-116
[7] = MTT assay, 48 h, mean ± SD, read-out: IC50 HCT-116
[8] = MTT assay, 48 h, mean ± SD, read-out: IC50 MDA-MB-231
[9] = promastigotes, MTT assay, mean ± SD, read-out: IC50 Leishmania major

**Q.** Which IC50 (184B5; Homo sapiens, 184B5, 48 h) does the source give for N#C[Se]C/C=C/c1ccccc1 [Compound 1a, (E)-(3-selenocyanatoprop-1-en-1-yl)benzene] here?
**A.** Its IC50 is 55 ± 6.7 µM.

**Q.** What about the IC50 (MDA-MB-231; Homo sapiens, MDA-MB-231, 48 h, read-out: IC50 MDA-MB-231, MTT assay, 48 h, mean ± SD) of the same compound?
**A.** The IC50 was > 50 µM.

**Q.** What about the IC50 (MDA-MB-231; read-out: IC50 MDA-MB-231, MTT assay, 48 h, mean ± SD) of the same compound?
**A.** Its IC50 is 71 ± 10.3 µM.

**Q.** What about the MBC (S. aureus) of the same compound?
**A.** The MBC was 50 µg/mL (≈ 225 µM).

**Q.** What about the MIC (S. aureus) of the same compound?
**A.** The MIC was 50 µg/mL (≈ 225 µM).

**Q.** What about the IC50 ([1]; Leishmania major, read-out: IC50 Leishmania major, promastigotes, MTT assay, 48 h, mean ± SD) of the same compound?
**A.** The IC50 was < 5 µM.

**Q.** And the IC50 ([1]; read-out: IC50 Leishmania major, promastigotes, MTT assay, mean ± SD)?
**A.** Its IC50 is 4.6 ± 1.7 µM.

**Q.** What about the IC50 (HCT-116; Homo sapiens, HCT-116, 48 h, read-out: IC50 HCT-116, MTT assay, 48 h, mean ± SD) of the same compound?
**A.** Its IC50 is > 50 µM.

**Q.** And the IC50 (HCT-116; read-out: IC50 HCT-116, MTT assay, 48 h, mean ± SD)?
**A.** Its IC50 is 68.8 ± 6.3 µM.

**Q.** And the MBC (E. coli)?
**A.** The MBC was > 200 µg/mL.

**Q.** And the MIC (E. coli)?
**A.** Its MIC is 100 µg/mL (≈ 450 µM).

**Q.** C(=C\c1ccccc1)/C[Se][Se]C/C=C/c1ccccc1 [Compound 1b, 1,2-Dicinnamyldiselenide] was tested. Which IC50 (184B5; [2]) did it give?
**A.** Its IC50 is > 100 µM.

**Q.** What about the “IC50 184B5” value (184B5; [3]) of the same compound?
**A.** The value was “not toxic”.

**Q.** And the IC50 (MDA-MB-231; [4])?
**A.** Its IC50 is 56.3 ± 5.3 µM.

**Q.** What about the MIC (S. aureus) of the same compound?
**A.** Its MIC is > 200 µg/mL.

**Q.** What about the IC50 [1, 5] of the same compound?
**A.** The IC50 was 47.6 ± 16 µM.

**Q.** What about the IC50 (HCT-116; [6]) of the same compound?
**A.** The IC50 was < 40 µM.

**Q.** And the IC50 (HCT-116; [7])?
**A.** Its IC50 is 36.6 ± 6.7 µM.

**Q.** What about the MIC (E. coli) of the same compound?
**A.** The MIC was > 200 µg/mL.

**Q.** How did the IC50 (184B5; [3]) turn out when O=C(CC[Se]CC=Cc1ccccc1)[c-]1cccc1.[Fe+2].c1cc[cH-]c1 [Compound 1c, 3-(Cinnamylselanyl)-1-ferrocenylpropan-1-one] was run?
**A.** The IC50 was 24.6 ± 0.4 µM.

**Q.** What about the IC50 (MDA-MB-231; [8]) of the same compound?
**A.** The IC50 was 32.1 ± 3 µM.

**Q.** What about the “MIC S. aureus” value (S. aureus) of the same compound?
**A.** The value was >200 µg/mL.

**Q.** What about the IC50 [1, 9] of the same compound?
**A.** Its IC50 is 25.8 ± 2.7 µM.

**Q.** And the IC50 (HCT-116; [7])?
**A.** The IC50 was > 100 µM.

**Q.** And the “MIC E. coli” value (E. coli)?
**A.** Its value is >200 µg/mL.

**Q.** Which results are given for N#C[Se]Cc1ccc2c(c1)OCO2 [Compound 2a, 5-(Selenocyanatomethyl)benzo[d][1,3]dioxole]?
**A.** IC50 (184B5; [2]): ~50 µM; IC50 (184B5; [3]): 48.6 ± 2.1 µM; IC50 (MDA-MB-231; [4]): 43.8 ± 5.7 µM; MBC S. aureus (S. aureus): could not be obtained; MIC S. aureus (S. aureus): ≤ 25 µg/mL; MBC (S. aureus): > 200 µg/mL; MIC (S. aureus): 25 µg/mL (≈ 104 µM); IC50 [1, 5]: < 5 µM; IC50 [1, 9]: 3.3 ± 0.9 µM; IC50 (HCT-116; [6]): 69.7 ± 5.3 µM; MBC (E. coli): 50 µg/mL (≈ 208 µM); MIC (E. coli): 50 µg/mL (≈ 208 µM)

**Q.** How did the IC50 (184B5; [3]) turn out when O=C(CC[Se]Cc1ccc2c(c1)OCO2)[c-]1cccc1.[Fe+2].c1cc[cH-]c1 [Compound 2c, 3-((Benzo[d][1,3]dioxol-5-ylmethyl)selanyl)-1-ferrocenylpropan-1-one] was run?
**A.** The IC50 was 50.1 ± 4.5 µM.

**Q.** What about the IC50 (MDA-MB-231; [8]) of the same compound?
**A.** The IC50 was 30.9 ± 1.3 µM.

**Q.** And the “MIC S. aureus” value (S. aureus)?
**A.** The value was >200 µg/mL.

**Q.** And the IC50 [1, 9]?
**A.** Its IC50 is 11.2 ± 3 µM.

**Q.** What about the IC50 (HCT-116; [7]) of the same compound?
**A.** The IC50 was > 100 µM.

**Q.** And the “MIC E. coli” value (E. coli)?
**A.** Its value is >200 µg/mL.
